Data as given in ChEMBL document CHEMBL5137069, “Discovery of Potent and Orally Bioavailable Pyridine N-Oxide-Based Factor XIa Inhibitors through Exploiting Nonclassical Interactions” (J Med Chem, 2022).
Values after ≈ are worked out from the molar mass of the structure shown. One block for each molecule: values may come before it.

Key:
[1] = AUC in Beagle dog at 5 mg/kg, po; type: ADME, organism-based, Canis lupus familiaris; set-up: dose 5 mg/kg, route po; details: in vivo
[2] = Clearance in Sprague-Dawley rat assessed as liver blood flow at 10 mg/kg, po and 2 mg/kg, iv; type: ADME, organism-based; details: in vivo
[3] = Oral bioavailability in Cynomolgus monkey at 5 mg/kg; type: ADME, organism-based, Macaca fascicularis; details: in vivo
[4] = Drug concentration in plasma of anesthetized New Zealand White rabbit model of AV shunt-induced thrombosis at 8.5 mg/kg, administered as iv bolus dose and subsequently followed by 10 mg/kg/hr as iv infusion from 20 min prior to 40 min after establishment of AV shunt by LC-MS/MS analysis; type: ADME, organism-based, Oryctolagus cuniculus; details: time 60 min
[5] = AUC in Cynomolgus monkey at 1 mg/kg, iv; type: ADME, organism-based, Macaca fascicularis; set-up: dose 1 mg/kg, route iv; details: in vivo
[6] = Half-life in Cynomolgus monkey at 5 mg/kg, po and 1 mg/kg, iv; type: ADME, organism-based, Macaca fascicularis; details: in vivo
[7] = Clearance in Beagle dog assessed as liver blood flow at 5 mg/kg, po and 1 mg/kg, iv; type: ADME, organism-based, Canis lupus familiaris; details: in vivo
[8] = Volume of distribution at steady state in Sprague-Dawley rat at 10 mg/kg, po and 2 mg/kg, iv; type: ADME, organism-based; details: in vivo
[9] = Clearance in Cynomolgus monkey assessed as liver blood flow at 5 mg/kg, po and 1 mg/kg, iv; type: ADME, organism-based, Macaca fascicularis; details: in vivo
[10] = Volume of distribution at steady state in Beagle dog at 5 mg/kg, po and 1 mg/kg, iv; type: ADME, organism-based, Canis lupus familiaris; details: in vivo
[11] = Half-life in Sprague-Dawley rat at 10 mg/kg, po and 2 mg/kg, iv; type: ADME, organism-based; details: in vivo
[12] = Stability in rat liver microsomes assessed as half-life; type: ADME, Microsome
[13] = AUC in Beagle dog at 1 mg/kg, iv; type: ADME, organism-based, Canis lupus familiaris; set-up: dose 1 mg/kg, route iv; details: in vivo
[14] = Oral Bioavailability in Sprague-Dawley rat at 10 mg/kg; type: ADME, organism-based; details: in vivo
[15] = Oral bioavailability in Beagle dog at 5 mg/kg; type: ADME, organism-based, Canis lupus familiaris; details: in vivo
[16] = AUC in Sprague-Dawley rat at 2 mg/kg, iv; type: ADME, organism-based; set-up: dose 2 mg/kg, route iv; details: in vivo
[17] = AUC in Sprague-Dawley rat at 10 mg/kg, po; type: ADME, organism-based; set-up: dose 10 mg/kg, route po; details: in vivo
[18] = Equilibrium solubility of compound at pH 1.2 by HPLC analysis; type: physicochemical; details: buffer
[19] = AUC in Cynomolgus monkey at 5 mg/kg, po; type: ADME, organism-based, Macaca fascicularis; set-up: dose 5 mg/kg, route po; details: in vivo
[20] = Volume of distribution at steady state in Cynomolgus monkey at 5 mg/kg, po and 1 mg/kg, iv; type: ADME, organism-based, Macaca fascicularis; details: in vivo
[21] = Hal-life in Beagle dog at 5 mg/kg, po and 1 mg/kg, iv; type: ADME, organism-based, Canis lupus familiaris; details: in vivo
[22] = Equilibrium solubility of compound at pH 6.8 by HPLC analysis; type: physicochemical; details: buffer
[23] = Drug concentration in plasma of anesthetized New Zealand White rabbit model of AV shunt-induced thrombosis at […], administered as iv bolus dose and subsequently followed by 0.8 mg/kg/hr as iv infusion from 20 min prior to 40 min after establishment of AV shunt by LC-MS/MS analysis; type: ADME, organism-based, Oryctolagus cuniculus; details: time 60 min
[24] = Stability in human liver microsomes assessed as half-life; type: ADME, Microsome
[25] = Oral bioavailability in Sprague-Dawley rat at 10 mg/kg administered as PEG-400/water/EtOH (7:2:1) formulation; type: ADME, organism-based; details: in vivo
[26] = Oral bioavailability in Sprague-Dawley rat at 10 mg/kg administered as 20% HPbCD formulation; type: ADME, organism-based; details: in vivo

- AUC [1]: 14.7 µM·h
- LBF [2]: 12%
- bioavailability [3]: 43%
- concentration at 1 h [4]: 7.5 µM
- AUC [5]: 1.1 µM·h
- half-life [6]: 60 min
- LBF [7]: 25%
- Vdss [8]: 0.8 L/kg
- LBF [9]: 58%
- Vdss [10]: 1.5 L/kg
- half-life [11]: 84 min
- half-life [12]: > 185 min
- AUC [13]: 3.7 µM·h
- bioavailability [14]: 36.4%
- bioavailability [15]: 80.5%
- AUC [16]: 5.5 µM·h
- AUC [17]: 10 µM·h
- solubility thermodynamic [18]: 81 µM (≈ 47 µg/mL)
- AUC [19]: 2.5 µM·h
- Vdss [20]: 1.5 L/kg
- half-life [21]: 120 min
- solubility thermodynamic [22]: 172 µM (≈ 99.6 µg/mL)
- concentration at 1 h [23]: 1080 nM
- half-life [24]: > 185 min
Structure (SMILES): Cn1nncc1-c1cnn([C@H](CCOC(F)F)c2ccc(-c3c(-n4cc(Cl)nn4)ccc(Cl)c3F)c[n+]2[O-])c1

- half-life [12]: > 185 min
- half-life [24]: > 185 min
Structure (SMILES): Cn1nncc1-c1cnn([C@H](CCOC(F)F)c2ccc(-c3c(-n4cnnn4)ccc(Cl)c3F)c[n+]2[O-])c1

- half-life [12]: 145 min
- half-life [24]: > 185 min
Structure (SMILES): Cn1nncc1-c1cnn([C@H](CCOC(F)F)c2ccc(-c3c(-n4cc(C(F)(F)F)nn4)ccc(Cl)c3F)c[n+]2[O-])c1

- half-life [12]: 47 min
- half-life [24]: 54 min
Structure (SMILES): COCC[C@H](c1ccc(-c2c(-n3cc(Cl)nn3)ccc(Cl)c2F)c[n+]1[O-])n1cc(-c2cnnn2C)cn1

- half-life [12]: 50 min
- half-life [24]: 170 min
Structure (SMILES): COCC[C@H](c1ccc(-c2c(-n3cnnn3)ccc(Cl)c2F)c[n+]1[O-])n1cc(-c2cnnn2C)cn1

- half-life [12]: 88 min
- half-life [24]: > 185 min
Structure (SMILES): Cn1nncc1-c1cnn([C@H](Cn2cc(F)cn2)c2ccc(-c3c(-n4cc(Cl)nn4)ccc(Cl)c3F)c[n+]2[O-])c1

- bioavailability [25]: 59.6%
Structure (SMILES): COC(=O)Nc1ccc(-c2cnn([C@H](CC3CC3)c3ccc(-c4c(-n5cnnn5)ccc(Cl)c4F)c[n+]3[O-])c2)cc1

- half-life [12]: 140 min
- half-life [24]: > 185 min
Structure (SMILES): Cn1nncc1-c1cnn([C@H](Cc2ccn(C(F)F)n2)c2ccc(-c3c(-n4cc(C(F)(F)F)nn4)ccc(Cl)c3F)c[n+]2[O-])c1

- half-life [12]: 48 min
- half-life [24]: > 185 min
Structure (SMILES): Cn1nncc1-c1cnn([C@H](Cc2ccc(F)cc2)c2ccc(-c3c(-n4cnnn4)ccc(Cl)c3F)c[n+]2[O-])c1

- half-life [12]: 77 min
- half-life [24]: 88 min
Structure (SMILES): Cn1nncc1-c1cnn([C@H](Cc2ccc(F)cc2)c2ccc(-c3c(-n4cc(Cl)nn4)ccc(Cl)c3F)c[n+]2[O-])c1

- half-life [12]: > 180 min
- half-life [24]: > 180 min
Structure (SMILES): Cn1nncc1-c1cnn([C@H](CC2CC2)c2ccc(-c3c(-n4cnnn4)ccc(Cl)c3F)c[n+]2[O-])c1

- half-life [12]: 64 min
- half-life [24]: 36 min
Structure (SMILES): Cn1cncc1-c1cnn([C@H](CC2CC2)c2ccc(-c3c(-n4cnnn4)ccc(Cl)c3F)c[n+]2[O-])c1

- bioavailability [26]: 37.3%
Structure (SMILES): COC(=O)Nc1ccc(-c2cnn(C(CC3CC3)c3ccc(-c4cc(Cl)ccc4-n4cnnn4)c[n+]3[O-])c2)cc1 (racemic)

- half-life [12]: 7 min
- half-life [24]: 3 min
Structure (SMILES): [O-][n+]1cc(-c2c(-n3cnnn3)ccc(Cl)c2F)ccc1C(CC1CC1)n1cc(-c2cncs2)cn1 (racemic)

- half-life [12]: 2 min
- half-life [24]: 2 min
Structure (SMILES): [O-][n+]1cc(-c2c(-n3cnnn3)ccc(Cl)c2F)ccc1C(CC1CC1)n1cc(-c2c(F)cncc2Cl)cn1 (racemic)

- half-life [12]: 27 min
- half-life [24]: 16 min
Structure (SMILES): Cn1nccc1-c1cnn(C(CC2CC2)c2ccc(-c3c(-n4cnnn4)ccc(Cl)c3F)c[n+]2[O-])c1 (racemic)

- half-life [12]: 18 min
- half-life [24]: 11 min
Structure (SMILES): Cc1ncsc1-c1cnn(C(CC2CC2)c2ccc(-c3c(-n4cnnn4)ccc(Cl)c3F)c[n+]2[O-])c1 (racemic)

- half-life [12]: > 180 min
- half-life [24]: > 180 min
Structure (SMILES): Nc1ccc(-c2cnn(C(CC3CC3)c3ccc(-c4c(-n5cnnn5)ccc(Cl)c4F)c[n+]3[O-])c2)c(F)n1 (racemic)

- half-life [12]: 108 min
- half-life [24]: 100 min
Structure (SMILES): Cc1nc(N)ccc1-c1cnn(C(CC2CC2)c2ccc(-c3c(-n4cnnn4)ccc(Cl)c3F)c[n+]2[O-])c1 (racemic)
